This note sets out measurements from patent US12187681B2 (Shanghai East Hospital, priority 2019, dated 2025).

For data set [1], the target named is T1, hERG (human ether-a-go-go related gene potassium channel, KCNH2) (Homo sapiens, UniProt Q12809).
T1 construct: expressed in transfected cells; host or cells: HEK293
Put plainly: hERG channel whole-cell patch clamp (Ion Channel Activity Measurement). Type of data set: cell-based. The settings on record: human, room temperature; for inhibition at 1 μM: pH 7.4, 1 μM test article; for inhibition at 10 μM: pH 7.4, 10 μM test article. The procedure:
HEK293 cell line expressing the human ERG (ether-a-go-go related gene) potassium channel (Potassium voltage-gated channel subfamily H member 2). cDNA strictly similar to GenBank accession number: NM_000238
(§1) Cells expressing channels were cultured in medium supplemented with 20% FBS in HAM'S F12 culture dish. Cells grew in a humidified incubator at 37° C. under 5% carbon dioxide. To passage cells, remove poor medium and rinse the cells once with PBS 1X. […] Place plate on a 37° C. warming incubator 5 min. As soon as cells are detached, add 5 ml of 37° C. complete medium. Draw cell suspension into a sterile pipet and homogenize cells gently to dissociate cells aggregates. Amplify or maintain the cells by seeding 2.5*105 cells in a 6 cm dish (final volume: 5 ml). To maintain electrophysiological performances, cell density must not exceed 80%. On the day before patch clamp experiment, 3*103 cells were seeded on coverslips in the 24-well plate and incubated at 37° C. in 5% carbon dioxide.
(§2) Glass pipette (BF150-86-10, Sutter Instruments) was made by puller (P97, Sutter Instruments). The glass pipette was manipulated using Micro-manipulator (Carm-C-S, MCI Instruments) under the microscope (AE31EF-INV, Motic). After touching the cell, a slight suction was applied to achieve high seal (GΩ). Fast capacitance (in pF) compensation was made after high seal was achieved; after achieving high seal, the membrane was broken, Cell capacitance (in pF) compensation was made from whole-cell capacitance compensation after the whole cell mode was achieved. No leak subtraction was made.
(§3) Cell was incubated with the test article for 5 minutes, or until the current reached a steady-state level. Multiple concentrations of test article were tested. The test articles were applied gradually from low to high concentration. The test and control solutions were flown into a recording chamber mounted on the stage of an inverted microscope via a gravity-fed solution delivery system. During the experiment, solutions were withdrawn from the recording chamber by vacuum aspiration. Each concentration was tested at multiple times. Each cell acted as its own control. All tests were performed at room temperature (23-25° C.).
hERG current was recorded under a holding potential at −80 mV and then depolarized to 30 mV for 2.5 seconds to activate the hERG channel. The peak tail currents were induced by a repolarizing pulse to −50 mV for 4 seconds. This voltage-clamp pulse protocol was performed continuously during the experiment. An interpulse interval of 10 seconds allowed recovery from inactivation. An interpulse of −50 mV test for 0.5 second before 30 mV depolarized step was included for leak current correction
For orientation: The hERG channel carries a current that helps repolarise heart muscle cells.

In data set [2] the target is T2, CaV1.2 (L-type voltage-dependent calcium channel; CACNA1C, CACNB2, CACNA2D1) (Homo sapiens, UniProt Q13936).
T2 construct: expressed in transfected cells; host or cells: CHO
T2 sequence (Q13936 1-2138 isoform Q13936-12): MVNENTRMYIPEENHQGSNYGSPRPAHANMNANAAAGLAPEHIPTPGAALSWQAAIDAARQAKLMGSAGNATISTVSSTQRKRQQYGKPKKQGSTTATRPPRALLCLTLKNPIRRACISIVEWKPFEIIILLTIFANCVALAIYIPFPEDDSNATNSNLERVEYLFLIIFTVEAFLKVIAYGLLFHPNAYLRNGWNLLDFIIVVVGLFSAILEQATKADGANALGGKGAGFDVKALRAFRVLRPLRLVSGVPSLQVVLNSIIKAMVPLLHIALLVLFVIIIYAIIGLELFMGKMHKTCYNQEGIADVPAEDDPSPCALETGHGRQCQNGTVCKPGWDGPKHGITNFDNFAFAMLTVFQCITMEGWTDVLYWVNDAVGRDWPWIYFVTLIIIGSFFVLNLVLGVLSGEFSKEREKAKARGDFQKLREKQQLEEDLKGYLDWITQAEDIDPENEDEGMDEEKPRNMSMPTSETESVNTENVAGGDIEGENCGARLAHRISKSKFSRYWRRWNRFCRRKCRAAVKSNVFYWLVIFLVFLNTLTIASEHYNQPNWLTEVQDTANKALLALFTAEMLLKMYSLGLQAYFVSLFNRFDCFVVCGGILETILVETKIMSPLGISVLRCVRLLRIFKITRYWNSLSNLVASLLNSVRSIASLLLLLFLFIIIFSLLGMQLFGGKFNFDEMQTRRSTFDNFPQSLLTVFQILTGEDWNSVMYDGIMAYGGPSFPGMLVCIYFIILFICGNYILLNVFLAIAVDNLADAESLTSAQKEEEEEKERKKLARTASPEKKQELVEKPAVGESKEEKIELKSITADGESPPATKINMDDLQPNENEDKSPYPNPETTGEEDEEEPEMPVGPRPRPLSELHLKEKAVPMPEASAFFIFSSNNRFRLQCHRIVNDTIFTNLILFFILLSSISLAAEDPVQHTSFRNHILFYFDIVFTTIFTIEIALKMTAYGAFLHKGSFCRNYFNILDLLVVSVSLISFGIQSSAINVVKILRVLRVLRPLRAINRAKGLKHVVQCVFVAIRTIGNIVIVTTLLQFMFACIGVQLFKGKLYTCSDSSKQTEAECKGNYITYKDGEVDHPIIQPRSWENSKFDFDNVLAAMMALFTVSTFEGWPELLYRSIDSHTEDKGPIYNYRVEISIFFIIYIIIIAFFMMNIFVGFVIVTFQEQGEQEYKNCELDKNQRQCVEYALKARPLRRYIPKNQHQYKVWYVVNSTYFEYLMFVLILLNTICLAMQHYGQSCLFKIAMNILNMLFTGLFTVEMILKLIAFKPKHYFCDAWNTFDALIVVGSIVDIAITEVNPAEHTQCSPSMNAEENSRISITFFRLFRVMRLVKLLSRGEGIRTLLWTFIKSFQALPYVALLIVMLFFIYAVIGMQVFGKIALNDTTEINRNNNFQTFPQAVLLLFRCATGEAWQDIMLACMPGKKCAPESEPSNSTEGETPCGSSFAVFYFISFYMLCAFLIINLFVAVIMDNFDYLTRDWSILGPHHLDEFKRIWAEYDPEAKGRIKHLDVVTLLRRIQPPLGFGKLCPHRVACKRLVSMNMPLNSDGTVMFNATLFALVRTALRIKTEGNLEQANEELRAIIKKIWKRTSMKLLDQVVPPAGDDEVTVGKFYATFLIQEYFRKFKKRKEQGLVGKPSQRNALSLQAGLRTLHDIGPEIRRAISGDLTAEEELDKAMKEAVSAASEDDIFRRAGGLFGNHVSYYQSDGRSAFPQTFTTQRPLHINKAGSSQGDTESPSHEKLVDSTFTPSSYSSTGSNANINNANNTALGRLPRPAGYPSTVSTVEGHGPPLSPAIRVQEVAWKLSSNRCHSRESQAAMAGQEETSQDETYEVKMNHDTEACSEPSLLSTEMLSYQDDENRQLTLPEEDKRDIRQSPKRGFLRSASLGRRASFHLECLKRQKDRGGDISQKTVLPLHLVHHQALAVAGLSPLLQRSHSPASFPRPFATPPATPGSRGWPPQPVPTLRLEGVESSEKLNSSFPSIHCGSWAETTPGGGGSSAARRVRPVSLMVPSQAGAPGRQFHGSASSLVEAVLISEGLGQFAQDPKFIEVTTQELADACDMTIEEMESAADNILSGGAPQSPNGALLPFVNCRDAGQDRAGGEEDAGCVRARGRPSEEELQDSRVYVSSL
T2 sequence (Q08289 1-605 isoform Q08289-2 partner): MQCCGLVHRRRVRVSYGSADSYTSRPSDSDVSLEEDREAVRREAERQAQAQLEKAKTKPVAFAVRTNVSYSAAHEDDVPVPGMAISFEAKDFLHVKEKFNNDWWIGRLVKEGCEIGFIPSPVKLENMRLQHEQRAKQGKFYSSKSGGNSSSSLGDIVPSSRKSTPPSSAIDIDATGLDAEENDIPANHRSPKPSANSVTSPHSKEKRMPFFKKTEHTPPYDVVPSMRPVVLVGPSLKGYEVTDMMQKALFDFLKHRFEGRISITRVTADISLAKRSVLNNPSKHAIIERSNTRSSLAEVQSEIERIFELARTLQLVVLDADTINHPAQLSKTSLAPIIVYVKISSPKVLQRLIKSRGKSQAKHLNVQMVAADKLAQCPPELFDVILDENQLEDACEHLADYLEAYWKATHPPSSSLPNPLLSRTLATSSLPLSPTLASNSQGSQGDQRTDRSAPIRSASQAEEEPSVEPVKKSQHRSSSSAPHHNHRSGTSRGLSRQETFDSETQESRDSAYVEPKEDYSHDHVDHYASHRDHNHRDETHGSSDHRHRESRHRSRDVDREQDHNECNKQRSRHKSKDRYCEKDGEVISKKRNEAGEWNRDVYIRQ
T2 sequence (P54289 25-1091 isoform P54289-2 partner limits assumed): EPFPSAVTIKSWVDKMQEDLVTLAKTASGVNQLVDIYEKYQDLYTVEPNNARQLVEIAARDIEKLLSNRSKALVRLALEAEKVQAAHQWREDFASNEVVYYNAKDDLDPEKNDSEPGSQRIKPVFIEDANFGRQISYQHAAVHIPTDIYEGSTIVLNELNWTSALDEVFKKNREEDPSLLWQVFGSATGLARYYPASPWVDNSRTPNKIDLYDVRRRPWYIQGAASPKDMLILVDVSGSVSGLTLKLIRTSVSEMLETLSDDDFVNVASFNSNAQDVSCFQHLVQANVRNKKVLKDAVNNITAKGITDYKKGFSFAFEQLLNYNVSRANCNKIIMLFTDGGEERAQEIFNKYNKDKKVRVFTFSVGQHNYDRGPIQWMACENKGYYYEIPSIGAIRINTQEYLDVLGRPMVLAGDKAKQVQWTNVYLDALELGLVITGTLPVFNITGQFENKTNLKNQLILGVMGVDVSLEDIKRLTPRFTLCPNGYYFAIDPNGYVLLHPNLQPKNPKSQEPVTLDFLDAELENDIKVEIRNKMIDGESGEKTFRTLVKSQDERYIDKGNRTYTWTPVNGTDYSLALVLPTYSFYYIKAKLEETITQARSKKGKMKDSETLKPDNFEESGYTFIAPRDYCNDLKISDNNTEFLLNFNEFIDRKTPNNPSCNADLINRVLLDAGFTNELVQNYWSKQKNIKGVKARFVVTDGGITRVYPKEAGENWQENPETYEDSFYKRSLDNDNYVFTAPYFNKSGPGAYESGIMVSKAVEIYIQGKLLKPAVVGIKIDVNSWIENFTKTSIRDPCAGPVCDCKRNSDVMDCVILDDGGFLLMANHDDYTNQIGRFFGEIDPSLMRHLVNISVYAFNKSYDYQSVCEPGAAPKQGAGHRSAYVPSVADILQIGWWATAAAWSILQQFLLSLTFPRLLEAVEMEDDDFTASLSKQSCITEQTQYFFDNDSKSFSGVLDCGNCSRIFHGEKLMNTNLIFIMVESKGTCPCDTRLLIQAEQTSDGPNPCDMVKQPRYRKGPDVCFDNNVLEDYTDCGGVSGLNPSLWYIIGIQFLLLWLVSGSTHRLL
T2 sequence (P54289 957-1103 partner limits assumed): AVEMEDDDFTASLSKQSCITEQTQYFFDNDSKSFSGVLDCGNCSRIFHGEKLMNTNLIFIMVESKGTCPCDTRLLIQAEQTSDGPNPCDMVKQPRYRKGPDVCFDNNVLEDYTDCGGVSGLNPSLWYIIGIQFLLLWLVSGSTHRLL
The data set is described as follows: CaV1.2 channel whole-cell patch clamp (Ion Channel Activity Measurement). As to conditions: human, room temperature; for inhibition at 5 min, 1 μM: pH 7.4, 1 μM test article; for inhibition at 5 min, 10 μM: pH 7.4, 10 μM test article, read-out: CaV 1.2 10 μM (ion-channel inhibition). It is filed as cell-based. Here is the method: • CHO cell line stably expressing human calcium channel, voltage-dependent, L type, • CACNA1C: cDNA strictly similar to GenBank accession number: NM_000719 • CACNB2: cDNA strictly similar to GenBank accession number: NM_000724 • CACNA2D1: cDNA strictly similar to GenBank accession number: NM_000722 Iks Channel Cell Line:
as §1
Bath solution: 140 mM TEA-C1, 2 mM MgCl2·6H2O, 10 mM CaCl2, 10 mM HEPES, 5 mM D-glucose, pH=7.4 with TEA-OH. Pipette solution: 120 mM CsCl, 1 mM MgCl2·6H2O, 10 mM HEPES, 10 mM EGTA, 0.3 mM Na2-GTP, 4 mM Mg-ATP, pH=7.2 with CsOH.
as §2, §3
Cav1.2 current was recorded under a holding potential at −80 mV and then depolarized to +10 mV for 0.3 seconds. This protocol was repeated at 20 s intervals to observe the effect of test articles on the peak of Cav1.2 current.
On the technique in general: In patch-clamp work, channel activity is measured electrically.

The mark [3] stands for this setting: HEK293 cells expressing the human ERG potassium channel.

Counter-ions that a name gives are not always drawn.

T1 sequence (Q12809 whole entry): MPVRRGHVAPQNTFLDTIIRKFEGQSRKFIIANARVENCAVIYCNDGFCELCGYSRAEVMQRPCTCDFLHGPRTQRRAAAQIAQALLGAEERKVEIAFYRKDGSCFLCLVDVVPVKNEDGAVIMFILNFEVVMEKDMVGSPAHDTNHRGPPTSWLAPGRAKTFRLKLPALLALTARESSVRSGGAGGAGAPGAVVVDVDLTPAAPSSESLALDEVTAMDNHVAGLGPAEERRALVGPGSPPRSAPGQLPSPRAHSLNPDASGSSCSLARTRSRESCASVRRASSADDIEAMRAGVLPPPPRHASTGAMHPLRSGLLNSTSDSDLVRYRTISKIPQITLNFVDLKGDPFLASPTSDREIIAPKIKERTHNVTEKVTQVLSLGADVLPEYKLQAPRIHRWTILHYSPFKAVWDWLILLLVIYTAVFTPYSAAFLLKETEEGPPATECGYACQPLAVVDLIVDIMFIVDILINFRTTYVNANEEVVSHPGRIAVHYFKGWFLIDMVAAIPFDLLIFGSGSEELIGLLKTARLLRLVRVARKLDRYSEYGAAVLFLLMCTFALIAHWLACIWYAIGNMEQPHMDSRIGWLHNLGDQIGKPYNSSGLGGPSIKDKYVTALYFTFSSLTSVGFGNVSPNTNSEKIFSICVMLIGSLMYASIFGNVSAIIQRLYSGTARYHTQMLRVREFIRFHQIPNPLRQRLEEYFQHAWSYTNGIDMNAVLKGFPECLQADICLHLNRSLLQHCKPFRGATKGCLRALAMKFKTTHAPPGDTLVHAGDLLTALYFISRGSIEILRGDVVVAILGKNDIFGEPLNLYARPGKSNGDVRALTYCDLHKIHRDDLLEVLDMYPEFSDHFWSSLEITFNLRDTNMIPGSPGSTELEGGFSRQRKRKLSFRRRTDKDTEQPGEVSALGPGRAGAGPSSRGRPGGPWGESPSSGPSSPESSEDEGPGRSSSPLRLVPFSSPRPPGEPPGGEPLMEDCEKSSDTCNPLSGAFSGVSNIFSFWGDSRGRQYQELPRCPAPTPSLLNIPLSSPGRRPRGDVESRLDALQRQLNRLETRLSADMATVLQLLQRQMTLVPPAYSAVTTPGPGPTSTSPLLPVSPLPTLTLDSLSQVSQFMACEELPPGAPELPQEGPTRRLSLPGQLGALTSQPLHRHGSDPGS

One may read the inhibition as the change of the read-out against control, counted positive when it falls. In data set [1] (setting [3]), `O=C(O)c1ccc2ccccc2c1Cc1c(O)ccc2ccccc12` [Compound A106, 1-((2-hydroxynaphthalen-1-yl)methyl)-2-naphthoic acid] registered an inhibition at 1 μM below 25% and an inhibition at 10 μM below 25%. In addition, in data set [2], the inhibition at 5 min, 1 μM is below 25% and the inhibition at 5 min, 10 μM is below 25%.

In data set [1] (setting [3]), `CCN(CC)CCOc1c(C)cc2ccccc2c1Cc1c(O)c(C)cc2ccccc12` [Compound A108, 1-((2-(2-(diethylamino)ethoxy)-3-methylnaphthalen-1-yl)methyl)-3-methylnaphthalen-2-ol] came in with an inhibition at 1 μM below 25% and an inhibition at 10 μM below 25%. In data set [2], the inhibition at 5 min, 1 μM is below 25% and the inhibition at 5 min, 10 μM is 25 to 50%.

In data set [1] (setting [3]), `Cc1cc2ccccc2c(Cc2c(O)c(C)cc3ccccc23)c1O` [Compound A032, 1,1′-methylenebis(3-methylnaphthalen-2-ol)] came in with an inhibition at 1 μM below 25% and an inhibition at 10 μM below 25%. For the same compound, in data set [2], the inhibition at 5 min, 1 μM was below 25% and the inhibition at 5 min, 10 μM was below 25%.

Turning to `O=C(O)c1ccc2ccccc2c1Cc1c(C(=O)O)ccc2ccccc12` [Compound A100, 1,1′-methylenebis(2-naphthoic acid)], in data set [1] (setting [3]), the inhibition at 1 μM was below 25% and the inhibition at 10 μM is below 25%. Moreover, in data set [2], the inhibition at 5 min, 1 μM was below 25% and the inhibition at 5 min, 10 μM is below 25%.

Consider `Oc1ccc2ccccc2c1Cc1c(OCCN2CCOCC2)ccc2ccccc12` [Compound A130, 1-((2-(2-morpholinoethoxy)naphthalen-1-yl)methyl)naphthalen-2-ol], for which, in data set [1] (setting [3]), the inhibition at 1 μM was below 25% and the inhibition at 10 μM lay within 75 to 100%. Also, in data set [2], the inhibition at 5 min, 1 μM lay in the range of 25 to 50% and the inhibition at 5 min, 10 μM lay within 75 to 100%.

In data set [1] (setting [3]), `Nc1ccc2ccccc2c1Cc1c(O)ccc2ccccc12` [Compound A021, 1-((2-aminonaphthalen-1-yl)methyl)naphthalen-2-ol] registered an inhibition at 1 μM below 25% and an inhibition at 10 μM below 25%. In addition, in data set [2], the inhibition at 5 min, 1 μM was below 25% and the inhibition at 5 min, 10 μM is below 25%.

In data set [1] (setting [3]), `CS(=O)(=O)Nc1cc(Cc2c(NS(C)(=O)=O)ccc3ccccc23)c2ccccc2c1` [Compound A024-2, N-(1-((3-(methylsulfonamido)naphthalen-1-yl)methyl)naphthalen-2-yl)methanesulfonamide] gave an inhibition at 1 μM below 25% and an inhibition at 10 μM of 50 to 75%. Also, in data set [2], the inhibition at 5 min, 1 μM was below 25% and the inhibition at 5 min, 10 μM lay in the range of 25 to 50%.

Regarding `CCN(CC)CCOc1c(C(C)C)cc2ccccc2c1Cc1c(O)c(C(C)C)cc2ccccc12` [Compound A102, 1-((2-(2-(diethylamino)ethoxy)-3-isopropylnaphthalen-1-yl)methyl)-3-isopropylnaphthalen-2-ol hydrochloride Salt], in data set [1] (setting [3]), the inhibition at 1 μM is 50 to 75% and the inhibition at 10 μM was 75 to 100%. Also, in data set [2], the inhibition at 5 min, 1 μM was below 25% and the inhibition at 5 min, 10 μM lay within 75 to 100%.

In data set [1] (setting [3]), `O=C(O)c1ccc2c(Cc3c(O)ccc4ccccc34)c(O)ccc2c1` [Compound A114, 6-hydroxy-5-((2-hydroxynaphthalen-1-yl)methyl)-2-naphthoic acid] showed an inhibition at 1 μM below 25% and an inhibition at 10 μM of 50 to 75%. In addition, in data set [2], the inhibition at 5 min, 1 μM was below 25% and the inhibition at 5 min, 10 μM is below 25%.

In the case of `Oc1ccc2ccccc2c1Cc1c(OCCN2CCCCC2)ccc2ccccc12` [Compound A138, 1-((2-(2-(piperidin-1-yl)ethoxy)naphthalen-1-yl)methyl)naphthalen-2-ol], the inhibition at 1 μM in data set [1] (setting [3]) lay in the range of 75 to 100%. For the same compound, in data set [2], the inhibition at 5 min, 1 μM was below 25% and the inhibition at 5 min, 10 μM lay in the range of 75 to 100%.

For `CS(=O)(=O)Nc1ccc2ccccc2c1Cc1c(NS(C)(=O)=O)ccc2ccccc12` [Compound A024, N,N′-(methylenebis(naphthalene-1,2-diyl))dimethanesulfonamide], in data set [2], the inhibition at 5 min, 1 μM is below 25% and the inhibition at 5 min, 10 μM was below 25%.

Turning to `Oc1cccc2c1C(c1c(O)ccc3ccccc13)=CC2` [Compound A078, 1-(4-hydroxy-1H-inden-3-yl)naphthalen-2-ol], in data set [1] (setting [3]), the inhibition at 1 μM is below 25% and the inhibition at 10 μM is below 25%. Moreover, in data set [2], the inhibition at 5 min, 1 μM was below 25% and the inhibition at 5 min, 10 μM was below 25%.

In data set [1] (setting [3]), `CCN(CC)CCOc1ccc2ccccc2c1Cc1c(O)c(C)cc2ccccc12` [Compound A098, 1-((2-(2-(diethylamino)ethoxy)naphthalen-1-yl)methyl)-3-methylnaphthalen-2-ol] came in with an inhibition at 1 μM of 25 to 50% and an inhibition at 10 μM of 75 to 100%. Further, in data set [2], the inhibition at 5 min, 1 μM was below 25% and the inhibition at 5 min, 10 μM is below 25%.

`NC(=O)c1ccc2ccccc2c1Cc1c(C(N)=O)ccc2ccccc12` [Compound A101, 1,1′-methylenebis(2-naphthamide)]: in data set [1] (setting [3]), the inhibition at 1 μM was below 25% and the inhibition at 10 μM was 50 to 75%. Further, in data set [2], the inhibition at 5 min, 1 μM was below 25% and the inhibition at 5 min, 10 μM is below 25%.

For `COc1ccc2ccccc2c1Cc1c(COCCN2CCCC2)ccc2ccccc12` [Compound A296, 1-(2-((1-((2-methoxynaphthalen-1-yl)methyl)naphthalen-2-yl)methoxy)ethyl)pyrrolidine], the inhibition at 1 μM in data set [1] was 75 to 100%. In addition, in data set [2], the inhibition at 5 min, 1 μM is below 25% and the inhibition at 5 min, 10 μM lay within 75 to 100%.

For `Oc1cccc2c1C(c1c(O)ccc3c1CCCC3)CCC2` (stereo not shown) [Compound A077-2, 1′,2′,3′,4′,5,6,7,8-octahydro-[1,1′-binaphthalene]-2,8′-diol], in data set [1] (setting [3]), the inhibition at 1 μM is below 25% and the inhibition at 10 μM lay in the range of 50 to 75%. For the same compound, in data set [2], the inhibition at 5 min, 1 μM was below 25% and the inhibition at 5 min, 10 μM is below 25%.

For the compound `COc1cc2ccccc2c(Cc2c(O)c(OC)cc3ccccc23)c1O` [Compound A050, 1,1′-methylenebis(3-methoxynaphthalen-2-ol)], in data set [1] (setting [3]), the inhibition at 1 μM is below 25% and the inhibition at 10 μM is below 25%. Moreover, in data set [2], the inhibition at 5 min, 1 μM is below 25% and the inhibition at 5 min, 10 μM was below 25%.

On to `Oc1cccc2c1C(c1c(O)ccc3ccccc13)CC2` (stereo not shown) [Compound A079, 1-(7-hydroxy-2,3-dihydro-1H-inden-1-yl)naphthalen-2-ol], for which, in data set [1] (setting [3]), the inhibition at 1 μM was below 25% and the inhibition at 10 μM lay within 75 to 100%. For the same compound, in data set [2], the inhibition at 5 min, 1 μM was below 25% and the inhibition at 5 min, 10 μM was 50 to 75%.

For `CCN(CC)CCOc1ccc2ccccc2c1Cc1c(OCCN(CC)CC)ccc2ccccc12` [Compound A103, 2,2′-((methylenebis(naphthalene-1,2-diyl))bis(oxy))bis(N,N-diethylethan-1-amine) formic acid], in data set [2], the inhibition at 5 min, 1 μM was below 25% and the inhibition at 5 min, 10 μM is below 25%.

In the case of `CS(=O)(=O)Nc1cc2ccccc2cc1Cc1c(NS(C)(=O)=O)ccc2ccccc12` [Compound A024-3, N-(3-((2-(methylsulfonamido)naphthalen-1-yl)methyl)naphthalen-2-yl)methanesulfonamide], in data set [2], the inhibition at 5 min, 1 μM was below 25% and the inhibition at 5 min, 10 μM was in the range of 25 to 50%.

As to `CC(C)Oc1ccc2ccccc2c1Cc1c(OCCN)ccc2ccccc12` [Compound A246, 2-((1-((2-isopropoxynaphthalen-1-yl)methyl)naphthalen-2-yl)oxy)ethan-1-amine], in data set [1] (setting [3]), the inhibition at 1 μM lay in the range of 25 to 50%.
